The test system of assay [1] is Mycobacterium tuberculosis. Description: Clearance of Mycobacterium tuberculosis H37Rv in BALB/c mouse lung at 25 mg/kg, po five times/week after 1 month relative to control. It counts as functional, organism-based. Set-up: dose 25 mg/kg.
Assay [2] has as its system Mycobacterium tuberculosis. Description: Clearance of Mycobacterium tuberculosis H37Rv in BALB/c mouse spleen at 25 mg/kg, po five times/week after 1 month relative to control. It counts as functional, organism-based. Set-up: dose 25 mg/kg.
In assay [3] the test system is Mycobacterium tuberculosis. In words: Decrease in spleen infection of BALB/c mouse infected with Mycobacterium tuberculosis H37Rv at 40 mg/kg, po five times/week after 1 month relative to control. It counts as functional.
For assay [4], the system named is Mycobacterium tuberculosis. Description: Decrease in spleen infection of BALB/c mouse infected with Mycobacterium tuberculosis H37Rv at 20 mg/kg, po five times/week after 1 month relative to control. It counts as functional.
The subject of assay [5] is Mycobacterium tuberculosis. Description: Decrease in spleen infection of BALB/c mouse infected with Mycobacterium tuberculosis H37Rv at 10 mg/kg, po five times/week after 1 month relative to control. Format: functional.

Calls of active or inactive are those of the source. No cut-off for these calls is given here.

In the case of `NNC(=O)c1ccncc1`, the outcome in assay [1] and in assay [2] was Active.
For the compound `CC(=O)Oc1ccccc1C(=O)O` [ASPIRIN], the Log10 cfu is listed as 4.38 in assay [3], 4.55 in assay [4] and 3.48 in assay [5].

Values taken from ChEMBL document CHEMBL1142207, “Aspirin antagonism in isoniazid treatment of tuberculosis in mice” (2007).
